From PubChem BioAssay AID248 (DTP/NCI, 2004)
Values joined by “and” are separate entries in the source; they are usually repeats but may differ in a detail not shown here. Equal entries are not always repeated. Toxic doses and inconclusive results are not listed. Cut-off read from the data, not from the text of the source: active = T/C of 150% or more; inactive = T/C below 125%.

Tested on: L1210 leukemia ip in BDF1 mice, survival T/C
Assay: NCI In Vivo Anticancer Drug Screen. Data for tumor model L1210 Leukemia (intraperitoneal) in B6D2F1 (BDF1) mice
Conditions: endpoint: mean survival time, higher = longer survival
Procedure, shortened: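 Read-out is survival time, reported as the treated-group measurement over the vehicle-control measurement.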

[1] = dose: 100.0 mg/kg/injection, schedule: Q01DX001 (ip), vehicle: carboxymethylcellulose (CMC)
[2] = dose: 200.0 mg/kg/injection, schedule: Q01DX001 (ip), vehicle: carboxymethylcellulose (CMC)
[3] = dose: 400.0 mg/kg/injection, schedule: Q01DX001 (ip), vehicle: carboxymethylcellulose (CMC)
[4] = dose: 100.0 mg/kg/injection, schedule: Q01DX009 (ip), vehicle: Klucel (hydroxypropylcellulose) (HPC)
[5] = dose: 200.0 mg/kg/injection, schedule: Q01DX009 (ip), vehicle: Klucel (hydroxypropylcellulose) (HPC)
[6] = dose: 400.0 mg/kg/injection, schedule: Q01DX009 (ip), vehicle: Klucel (hydroxypropylcellulose) (HPC)
[7] = dose: 100.0 mg/kg/injection, schedule: Q04DX003 (ip), vehicle: Klucel (hydroxypropylcellulose) (HPC)
[8] = dose: 200.0 mg/kg/injection, schedule: Q04DX003 (ip), vehicle: Klucel (hydroxypropylcellulose) (HPC)
[9] = dose: 200.0 mg/kg/injection, schedule: Q01DX009 (ip), vehicle: saline with Tween-80
[10] = dose: 100.0 mg/kg/injection, schedule: Q04DX003 (ip), vehicle: saline with Tween-80
[11] = dose: 200.0 mg/kg/injection, schedule: Q04DX003 (ip), vehicle: saline with Tween-80
[12] = dose: 400.0 mg/kg/injection, schedule: Q04DX003 (ip), vehicle: saline with Tween-80

Measured: T/C

CN(CC(=O)O)C(=N)N
inactive: [1] 92 % of control | [2] 94 % of control | dose: 250.0 mg/kg/injection, schedule: Q01DX Z (ip), vehicle: saline 94 % of control | [3] 97 % of control | dose: 500.0 mg/kg/injection, schedule: Q01DX Z (ip), vehicle: saline 104 % of control | dose: 1000.0 mg/kg/injection, schedule: Q01DX Z (ip), vehicle: saline 107 % of control | dose: 1500.0 mg/kg/injection, schedule: Q#A X Z (ip), vehicle: water 117 % of control | dose: 2500.0 mg/kg/injection, schedule: Q#A X Z (ip), vehicle: water 95 % of control

Cc1ccc(C)c(NC(=O)Nc2ncccn2)c1
inactive: [4] 102 % of control | [5] 92 % of control | [6] 97 % of control

COc1cccc(CNc2ccc(C)cc2C)c1OC
inactive: [4] 100 % of control | [7] 92 % of control | [5] 107 % of control | [8] 91 % of control | [6] 109 % of control | dose: 400.0 mg/kg/injection, schedule: Q04DX003 (ip), vehicle: Klucel (hydroxypropylcellulose) (HPC) 97 % of control

CO[C@H](C)[C@](O)(C(=O)OCC1=CCN2CC[C@@H](O)[C@H]12)C(C)C
inactive: dose: 65.0 mg/kg/injection, schedule: Q01DX009 (ip), vehicle: saline 95 % of control and 109 % of control | dose: 75.0 mg/kg/injection, schedule: Q01DX001 (ip), vehicle: acetone 106 % of control | dose: 100.0 mg/kg/injection, schedule: Q01DX009 (ip), vehicle: saline 95 % of control and 105 % of control | dose: 150.0 mg/kg/injection, schedule: Q01DX001 (ip), vehicle: acetone 103 % of control | dose: 150.0 mg/kg/injection, schedule: Q01DX009 (ip), vehicle: saline 94 % of control | dose: 300.0 mg/kg/injection, schedule: Q01DX001 (ip), vehicle: acetone 106 % of control

[NH-]c1ccccc1C(=O)O.[NH-]c1ccccc1C(=O)O.[Ni+2]
inactive: dose: 50.0 mg/kg/injection, schedule: Q01DX009 (ip), vehicle: saline with Tween-80 100 % of control | [9] 105 % of control

OCC1OC(n2c(=S)[nH]c3ccccc32)C(O)C1O (centres undefined)
inactive: dose: 100.0 mg/kg/injection, schedule: Q01DX001 (ip), vehicle: saline 108 % of control | dose: 200.0 mg/kg/injection, schedule: Q01DX001 (ip), vehicle: saline 100 % of control | dose: 400.0 mg/kg/injection, schedule: Q01DX001 (ip), vehicle: saline 106 % of control

O=C1c2cccc(Sc3ccccc3)c2C(=O)c2c(Sc3ccccc3)cccc21
inactive: [10] 91 % of control | [11] 88 % of control | [12] 91 % of control

CC(=O)Nc1ccc(/C=N\NC(=S)Nc2ccccc2)cc1
inactive: [4] 107 % of control | [5] 93 % of control | [6] 94 % of control

C/C(CCCCl)=N/N=C(N)N
inactive: dose: 12.5 mg/kg/injection, schedule: Q04DX003 (ip), vehicle: saline 100 % of control | dose: 18.75 mg/kg/injection, schedule: Q01DX009 (ip), vehicle: saline with Tween-80 96 % of control | dose: 25.0 mg/kg/injection, schedule: Q04DX003 (ip), vehicle: saline 110 % of control | dose: 37.5 mg/kg/injection, schedule: Q01DX009 (ip), vehicle: saline with Tween-80 90 % of control | dose: 50.0 mg/kg/injection, schedule: Q04DX003 (ip), vehicle: saline 103 % of control | dose: 75.0 mg/kg/injection, schedule: Q01DX009 (ip), vehicle: saline with Tween-80 94 % of control | dose: 75.0 mg/kg/injection, schedule: Q04DX003 (ip), vehicle: acetone 95 % of control | dose: 110.0 mg/kg/injection, schedule: Q01DX009 (ip), vehicle: saline with Tween-80 98 % of control

CCOC(=O)C(OCc1ccccc1)(C(=O)N1CCCCC1=O)C(C)C (centres undefined)
inactive: dose: 25.0 mg/kg/injection, schedule: Q04DX003 (ip), vehicle: Klucel (hydroxypropylcellulose) (HPC) 119 % of control | dose: 50.0 mg/kg/injection, schedule: Q04DX003 (ip), vehicle: Klucel (hydroxypropylcellulose) (HPC) 97 % of control | [7] 113 % of control | [8] 88 % of control

Cc1cc(NCCN(C(C)C)C(C)C)nc(/N=C(\N)Nc2ccc(Cl)c(Cl)c2)n1
inactive: dose: 4.69 mg/kg/injection, schedule: Q01DX009 (ip), vehicle: Klucel (hydroxypropylcellulose) (HPC) 95 % of control | dose: 9.38 mg/kg/injection, schedule: Q01DX009 (ip), vehicle: Klucel (hydroxypropylcellulose) (HPC) 93 % of control | dose: 18.75 mg/kg/injection, schedule: Q01DX009 (ip), vehicle: Klucel (hydroxypropylcellulose) (HPC) 87 % of control | dose: 75.0 mg/kg/injection, schedule: Q01DX001 (ip), vehicle: other 94 % of control | dose: 150.0 mg/kg/injection, schedule: Q01DX001 (ip), vehicle: other 105 % of control

CC(=O)OC1CCC2(C)C(=CCC3C4C/C(=C\N5CCCC5)C(=O)C4(C)CCC32)C1 (centres undefined)
inactive: dose: 100.0 mg/kg/injection, schedule: Q01DX001 (ip), vehicle: saline with Tween-80 93 % of control | dose: 200.0 mg/kg/injection, schedule: Q01DX001 (ip), vehicle: saline with Tween-80 90 % of control | dose: 400.0 mg/kg/injection, schedule: Q01DX001 (ip), vehicle: saline with Tween-80 90 % of control

N#Cc1ccc2c(c1)C([P+](c1ccccc1)(c1ccccc1)c1ccccc1)c1ccccc1-2 (centres undefined)
inactive: dose: 75.0 mg/kg/injection, schedule: Q01DX001 (ip), vehicle: carboxymethylcellulose (CMC) 88 % of control | dose: 300.0 mg/kg/injection, schedule: Q01DX001 (ip), vehicle: carboxymethylcellulose (CMC) 92 % of control

CCOC(=O)C1=C2c3ccc4ccccc4c3CCC2(C)C(=O)C1 (centres undefined)
inactive: dose: 75.0 mg/kg/injection, schedule: Q01DX001 (sc), vehicle: steriod suspending solution 98 % of control | dose: 75.0 mg/kg/injection, schedule: Q01DX009 (sc), vehicle: steriod suspending solution 106 % of control | dose: 150.0 mg/kg/injection, schedule: Q01DX001 (sc), vehicle: steriod suspending solution 103 % of control | dose: 150.0 mg/kg/injection, schedule: Q01DX009 (sc), vehicle: steriod suspending solution 101 % of control | dose: 300.0 mg/kg/injection, schedule: Q01DX001 (sc), vehicle: steriod suspending solution 93 % of control | dose: 300.0 mg/kg/injection, schedule: Q01DX009 (sc), vehicle: steriod suspending solution 105 % of control

CCCCCCCCOC(=O)Nc1ccc(S(=O)(=O)CC)cc1
inactive: [1] 91 % of control | [2] 89 % of control | [3] 89 % of control

CC12CCC(/C(=C/N(O)/C=C3\C(=O)C4(C)CCC3C4(C)C)C1=O)C2(C)C
inactive: dose: 75.0 mg/kg/injection, schedule: Q01DX001 (ip), vehicle: saline 96 % of control | dose: 150.0 mg/kg/injection, schedule: Q01DX001 (ip), vehicle: saline 91 % of control | dose: 300.0 mg/kg/injection, schedule: Q01DX001 (ip), vehicle: saline 94 % of control

CCNC(=O)NC(CSCSC)C(=O)OC (centres undefined)
inactive: dose: 100.0 mg/kg/injection, schedule: Q01DX009 (ip), vehicle: saline with Tween-80 98 % of control | [10] 104 % of control | [9] 105 % of control | [11] 105 % of control | dose: 400.0 mg/kg/injection, schedule: Q01DX009 (ip), vehicle: saline with Tween-80 96 % of control | [12] 102 % of control
